# Starred links: 1 amine or outer side, 2 acyl side, 3 side chain; linkers in the order of their positions; H or OH if unused. Non-standard residues stand in square brackets, D forms with d. Residues, ends and D or L forms follow the SMILES beside them. Phe(4-(trans-4-COOH-cHex)) = N[C@@H](Cc1ccc([C@H]2CC[C@H](C(=O)O)CC2)cc1)C(=O)O; Phe(4-(cis-4-COOH-cHex)) = N[C@@H](Cc1ccc([C@H]2CC[C@@H](C(=O)O)CC2)cc1)C(=O)O; Phe(4-(5-CO2H-2-pyrimidyl)) = N[C@@H](Cc1ccc(-c2ncc(C(=O)O)cn2)cc1)C(=O)O; Trp(βS-Me,4-F) = C[C@@H](c1c[nH]c2cccc(F)c12)[C@H](N)C(=O)O; 3Aminoazetidine3carboxyl = O=C(C1(N[*:1])CN([*:3])C1)[*:2]; Bip(4'-COOH) = N[C@@H](Cc1ccc(-c2ccc(C(=O)O)cc2)cc1)C(=O)O; Ala(1-bicyclo(1.1.1)pentyl) = N[C@@H](CC12CC(C1)C2)C(=O)O; dPro(4R-Bzl(4-F)) = O=C(O)[C@H]1C[C@@H](Cc2ccc(F)cc2)CN1; X14 = O=C([C@H]1[C@@H](Cc2ccccc2)CCN1[*:1])[*:2]; X9 = O=C([C@H]1[C@@H](Cc2cncnc2)CCN1[*:1])[*:2]; Ala(pyrimidin-5-yl) = N[C@@H](Cc1cncnc1)C(=O)O; Phe(4-COOH) = N[C@@H](Cc1ccc(C(=O)O)cc1)C(=O)O; Pro(cis-4-F) = O=C(O)[C@@H]1C[C@H](F)CN1; AEF = NCCOc1ccc(C[C@H](N)C(=O)O)cc1; 2Pal = N[C@@H](Cc1ccccn1)C(=O)O; 3Pal = N[C@@H](Cc1cccnc1)C(=O)O; 4Pal = N[C@@H](Cc1ccncc1)C(=O)O; αMeK = C[C@](N)(CCCCN)C(=O)O; Api = NC1(C(=O)O)CCNCC1; Dab = NCC[C@H](N)C(=O)O; Aib = CC(C)(N)C(=O)O
# Molecular target: T1, IL-1β (Homo sapiens, UniProt P01584)
# T1 construct: purchased BioLegend 579404
# T1 sequence (P01584 117-269): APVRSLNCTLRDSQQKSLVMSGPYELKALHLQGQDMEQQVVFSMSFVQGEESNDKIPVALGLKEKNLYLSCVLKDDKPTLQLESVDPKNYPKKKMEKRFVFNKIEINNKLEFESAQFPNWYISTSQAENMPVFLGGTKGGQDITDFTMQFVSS
# Test: IL-6 assay in MRC5 cells: inhibition of IL-1β induced IL-6 secretion (AlphaLISA)
# Format: cell-based
# Details: inhibition of IL-1β induced IL-6 secretion in MRC5 cells; read-out: MRC5 IC50
# How it was run: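 Compound was pre-incubated 1 h at ambient temperature with recombinant human IL-1β at 2λ EC80 before adding human lung fibroblast MRC5 cells (3000/well) in EMEM with 0.025% BSA. After overnight culture at 37 °C, 5% CO2, secreted IL-6 in conditioned medium was measured by AlphaLISA; IC50 from 4-parameter logistic fits.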
row,Structure (SMILES),IC50 [pM]
1,"C[C@@H](c1c[nH]c2cccc(F)c12)[C@@H]1NC(=O)[C@@H]2C[C@H](F)CN2C(=O)CNC(=O)[C@H](Cc2ccc(C(=O)O)cc2)NC(=O)[C@H](Cc2ccncc2)NC(=O)[C@H](Cc2ccc(-c3ccc(C(=O)O)cc3)cc2)NC(=O)[C@H]2C[C@@H](Cc3ccc(F)cc3)CN2C(=O)CNC(=O)[C@H](CCN)NC(=O)[C@H](CCC(N)=O)NC(=O)[C@H](Cc2cncnc2)NC(=O)C2(CCNCC2)NC(=O)[C@H](Cc2c[nH]c3ccccc23)NC(=O)[C@H](CCC(=O)O)NC(=O)C(C)(C)NC1=O [Example 65] (cyclo([Bip(4'-COOH)][4Pal][Phe(4-COOH)]G[Pro(cis-4-F)][Trp(βS-Me,4-F)][Aib]EW[Api][Ala(pyrimidin-5-yl)]Q[Dab]G[dPro(4R-Bzl(4-F))]))",25
2,"C[C@@H](c1c[nH]c2cccc(F)c12)[C@@H]1NC(=O)[C@@H]2C[C@H](F)CN2C(=O)CNC(=O)[C@H](Cc2ccc(C(=O)O)cc2)NC(=O)[C@H](Cc2ccncc2)NC(=O)[C@H](Cc2ccc(-c3ccc(C(=O)O)cc3)cc2)NC(=O)[C@H]2C[C@@H](Cc3ccc(F)cc3)CN2C(=O)CNC(=O)[C@H](CCN)NC(=O)[C@H](CCC(N)=O)NC(=O)[C@H](Cc2cncnc2)NC(=O)C(C)(C)NC(=O)[C@H](Cc2c[nH]c3ccccc23)NC(=O)[C@H](CCC(=O)O)NC(=O)[C@](C)(CCCCN)NC1=O [Example 66] (cyclo([Bip(4'-COOH)][4Pal][Phe(4-COOH)]G[Pro(cis-4-F)][Trp(βS-Me,4-F)][αMeK]EW[Aib][Ala(pyrimidin-5-yl)]Q[Dab]G[dPro(4R-Bzl(4-F))]))",28
3,"C[C@@H](c1c[nH]c2cccc(F)c12)[C@@H]1NC(=O)[C@@H]2C[C@H](F)CN2C(=O)CNC(=O)[C@H](Cc2ccc(C(=O)O)cc2)NC(=O)[C@H](Cc2ccncc2)NC(=O)[C@H](Cc2ccc(-c3ccc(C(=O)O)cc3)cc2)NC(=O)[C@H]2C[C@@H](Cc3ccc(F)cc3)CN2C(=O)CNC(=O)[C@H](CCN)NC(=O)[C@H](CCC(N)=O)NC(=O)[C@H](Cc2cncnc2)NC(=O)[C@](C)(CCCCN)NC(=O)[C@H](Cc2c[nH]c3ccccc23)NC(=O)[C@H](CCC(=O)O)NC(=O)C(C)(C)NC1=O [Example 67] (cyclo([4Pal][Phe(4-COOH)]G[Pro(cis-4-F)][Trp(βS-Me,4-F)][Aib]EW[αMeK][Ala(pyrimidin-5-yl)]Q[Dab]G[dPro(4R-Bzl(4-F))][Bip(4'-COOH)]))",21
4,"C[C@@H](c1c[nH]c2cccc(F)c12)[C@@H]1NC(=O)[C@@H]2C[C@H](F)CN2C(=O)CNC(=O)[C@H](Cc2ccc(C(=O)O)cc2)NC(=O)[C@H](Cc2ccncc2)NC(=O)[C@H](Cc2ccc([C@H]3CC[C@H](C(=O)O)CC3)cc2)NC(=O)[C@H]2C[C@@H](Cc3ccc(F)cc3)CN2C(=O)CNC(=O)[C@H](CCN)NC(=O)[C@H](CCC(N)=O)NC(=O)[C@H](Cc2cncnc2)NC(=O)C2(CNC2)NC(=O)[C@H](Cc2c[nH]c3ccccc23)NC(=O)[C@H](CCC(=O)O)NC(=O)C(C)(C)NC1=O [Example 68] (cyclo([Phe(4-(trans-4-COOH-cHex))][4Pal][Phe(4-COOH)]G[Pro(cis-4-F)][Trp(βS-Me,4-F)][Aib]EW[3Aminoazetidine3carboxyl][Ala(pyrimidin-5-yl)]Q[Dab]G[dPro(4R-Bzl(4-F))]))",29
5,"C[C@@H](c1c[nH]c2cccc(F)c12)[C@@H]1NC(=O)[C@@H]2C[C@H](F)CN2C(=O)CNC(=O)[C@H](Cc2ccc(C(=O)O)cc2)NC(=O)[C@H](Cc2ccncc2)NC(=O)[C@H](Cc2ccc([C@H]3CC[C@@H](C(=O)O)CC3)cc2)NC(=O)[C@H]2C[C@@H](Cc3ccc(F)cc3)CN2C(=O)CNC(=O)[C@H](CCN)NC(=O)[C@H](CCC(N)=O)NC(=O)[C@H](Cc2cncnc2)NC(=O)C2(CNC2)NC(=O)[C@H](Cc2c[nH]c3ccccc23)NC(=O)[C@H](CCC(=O)O)NC(=O)C(C)(C)NC1=O [Example 69] (cyclo([Phe(4-(cis-4-COOH-cHex))][4Pal][Phe(4-COOH)]G[Pro(cis-4-F)][Trp(βS-Me,4-F)][Aib]EW[3Aminoazetidine3carboxyl][Ala(pyrimidin-5-yl)]Q[Dab]G[dPro(4R-Bzl(4-F))]))",30
6,"C[C@@H](c1c[nH]c2cccc(F)c12)[C@@H]1NC(=O)[C@@H]2C[C@H](F)CN2C(=O)CNC(=O)[C@H](Cc2ccc(C(=O)O)cc2)NC(=O)[C@H](Cc2ccncc2)NC(=O)[C@H](Cc2ccc(-c3ccc(C(=O)O)cc3)cc2)NC(=O)[C@H]2[C@@H](Cc3cncnc3)CCN2C(=O)CNC(=O)[C@H](CCN)NC(=O)[C@H](CCC(N)=O)NC(=O)[C@H](Cc2cncnc2)NC(=O)C(C)(C)NC(=O)[C@H](Cc2c[nH]c3ccccc23)NC(=O)[C@H](CCC(=O)O)NC(=O)C(C)(C)NC1=O [Example 71] (cyclo([Bip(4'-COOH)][4Pal][Phe(4-COOH)]G[Pro(cis-4-F)][Trp(βS-Me,4-F)][Aib]EW[Aib][Ala(pyrimidin-5-yl)]Q[Dab]G[X9]))",58
7,"C[C@@H](c1c[nH]c2cccc(F)c12)[C@@H]1NC(=O)[C@@H]2C[C@H](F)CN2C(=O)CNC(=O)[C@H](Cc2ccc(C(=O)O)cc2)NC(=O)[C@H](Cc2ccncc2)NC(=O)[C@H](Cc2ccc(-c3ccc(C(=O)O)cc3)cc2)NC(=O)[C@H]2C[C@@H](Cc3ccc(F)cc3)CN2C(=O)CNC(=O)[C@H](CCN)NC(=O)[C@H](CCC(N)=O)NC(=O)[C@H](Cc2cccnc2)NC(=O)C(C)(C)NC(=O)[C@H](Cc2c[nH]c3ccccc23)NC(=O)[C@H](CCC(=O)O)NC(=O)C(C)(C)NC1=O [Example 72] (cyclo([3Pal]Q[Dab]G[dPro(4R-Bzl(4-F))][Bip(4'-COOH)][4Pal][Phe(4-COOH)]G[Pro(cis-4-F)][Trp(βS-Me,4-F)][Aib]EW[Aib]))",27
8,"C[C@@H](c1c[nH]c2cccc(F)c12)[C@@H]1NC(=O)[C@@H]2C[C@H](F)CN2C(=O)CNC(=O)[C@H](Cc2ccc(C(=O)O)cc2)NC(=O)[C@H](Cc2ccncc2)NC(=O)[C@H](Cc2ccc(-c3ccc(C(=O)O)cc3)cc2)NC(=O)[C@H]2C[C@@H](Cc3ccc(F)cc3)CN2C(=O)CNC(=O)[C@H](CCN)NC(=O)[C@H](CCC(N)=O)NC(=O)[C@H](Cc2ccccn2)NC(=O)C(C)(C)NC(=O)[C@H](Cc2c[nH]c3ccccc23)NC(=O)[C@H](CCC(=O)O)NC(=O)C(C)(C)NC1=O [Example 73] (cyclo([Bip(4'-COOH)][4Pal][Phe(4-COOH)]G[Pro(cis-4-F)][Trp(βS-Me,4-F)][Aib]EW[Aib][2Pal]Q[Dab]G[dPro(4R-Bzl(4-F))]))",31

# Other lines, results leading:
row,IC50 [pM],Structure (SMILES)
1,59,"C[C@@H](c1c[nH]c2cccc(F)c12)[C@@H]1NC(=O)[C@@H]2C[C@H](F)CN2C(=O)CNC(=O)[C@H](Cc2ccc(C(=O)O)cc2)NC(=O)[C@H](Cc2ccncc2)NC(=O)[C@H](Cc2ccc(-c3ccc(C(=O)O)cc3)cc2)NC(=O)[C@H]2C[C@@H](Cc3ccc(F)cc3)CN2C(=O)CNC(=O)[C@H](CCCNC(=N)N)NC(=O)[C@H](CCC(N)=O)NC(=O)[C@H](Cc2ccncc2)NC(=O)C(C)(C)NC(=O)[C@H](Cc2c[nH]c3ccccc23)NC(=O)[C@H](CCC(=O)O)NC(=O)C(C)(C)NC1=O [Example 76] (cyclo([Bip(4'-COOH)][4Pal][Phe(4-COOH)]G[Pro(cis-4-F)][Trp(βS-Me,4-F)][Aib]EW[Aib][4Pal]QRG[dPro(4R-Bzl(4-F))]))"
2,36,"CC(=O)NCCOc1ccc(C[C@@H]2NC(=O)[C@H]3[C@@H](Cc4ccccc4)CCN3C(=O)CNC(=O)[C@H](CCN)NC(=O)[C@H](CCC(N)=O)NC(=O)[C@H](Cc3cncnc3)NC(=O)C(C)(C)NC(=O)[C@H](Cc3c[nH]c4ccccc34)NC(=O)[C@H](CCC(=O)O)NC(=O)C(C)(C)NC(=O)[C@H]([C@@H](C)c3c[nH]c4cccc(F)c34)NC(=O)[C@@H]3C[C@H](F)CN3C(=O)CNC(=O)[C@H](Cc3ccc(C(=O)O)cc3)NC(=O)[C@H](Cc3ccncc3)NC2=O)cc1 [Example 78] (cyclo([AEF](Ac)[4Pal][Phe(4-COOH)]G[Pro(cis-4-F)][Trp(βS-Me,4-F)][Aib]EW[Aib][Ala(pyrimidin-5-yl)]Q[Dab]G[X14]))"
3,49,"C[C@@H](c1c[nH]c2cccc(F)c12)[C@@H]1NC(=O)[C@@H]2C[C@H](F)CN2C(=O)CNC(=O)[C@H](Cc2ccc(C(=O)O)cc2)NC(=O)[C@H](Cc2ccncc2)NC(=O)[C@H](Cc2ccc(-c3ncc(C(=O)O)cn3)cc2)NC(=O)[C@H]2C[C@@H](Cc3ccc(F)cc3)CN2C(=O)CNC(=O)[C@H](CCN)NC(=O)[C@H](CCC(N)=O)NC(=O)[C@H](Cc2ccncc2)NC(=O)C2(CNC2)NC(=O)[C@H](Cc2c[nH]c3ccccc23)NC(=O)[C@H](CCC(=O)O)NC(=O)C(C)(C)NC1=O [Example 81] (cyclo([Phe(4-(5-CO2H-2-pyrimidyl))][4Pal][Phe(4-COOH)]G[Pro(cis-4-F)][Trp(βS-Me,4-F)][Aib]EW[3Aminoazetidine3carboxyl][4Pal]Q[Dab]G[dPro(4R-Bzl(4-F))]))"
4,54,"C[C@@H](c1c[nH]c2cccc(F)c12)[C@@H]1NC(=O)[C@@H]2C[C@H](F)CN2C(=O)CNC(=O)[C@H](Cc2ccc(C(=O)O)cc2)NC(=O)[C@H](CC23CC(C2)C3)NC(=O)[C@H](Cc2ccc(-c3ncc(C(=O)O)cn3)cc2)NC(=O)[C@H]2C[C@@H](Cc3ccc(F)cc3)CN2C(=O)CNC(=O)[C@H](CCN)NC(=O)[C@H](CCC(N)=O)NC(=O)[C@H](Cc2cncnc2)NC(=O)C(C)(C)NC(=O)[C@H](Cc2c[nH]c3ccccc23)NC(=O)[C@H](CCC(=O)O)NC(=O)C(C)(C)NC1=O [Example 82] (cyclo([Phe(4-(5-CO2H-2-pyrimidyl))][Ala(1-bicyclo(1.1.1)pentyl)][Phe(4-COOH)]G[Pro(cis-4-F)][Trp(βS-Me,4-F)][Aib]EW[Aib][Ala(pyrimidin-5-yl)]Q[Dab]G[dPro(4R-Bzl(4-F))]))"
